Measurements: patent US10899753B2, “Inhibiting agents for Bruton's tyrosine kinase” (BIOGEN MA INC., priority 2018, dated 2021)

Assays:
[1] = target: T1, BTK (Homo sapiens (Human), UniProt Q06187); test: In Vitro BTK Kinase Assay: BTK-POLYGAT-LS ASSAY; assay type: biochemical; details: fluorescein-labeled polyGAT peptide 100 nM, BTK enzyme 0.25 nM, 30 minutes, TRF
Description: In Vitro BTK Kinase Assay: BTK-POLYGAT-LS ASSAY
The purpose of the BTK in vitro assay is to determine compound potency against BTK through the measurement of IC50. […] For a typical assay, a […] aliquot of a ATP/peptide master mix (final concentration; ATP […], polyGAT 100 nM) in kinase buffer (10 mM Tris-HCl pH 7.5, 10 mM MgCl2, 200 μM Na3PO4, 5 mM DTT, 0.01% Triton X-100, and 0.2 mg/ml casein) is added to each well. […] The assay is incubated for 30 minutes before being stopped with 28 μL of a 50 mM EDTA solution. […] The plate is covered and incubated for 45 minutes at room temperature. Time resolved fluorescence (TRF) on Molecular Devices M5 (332 nm excitation; 488 nm emission; 518 nm fluorescein emission) is measured.

[2] = target: T1, BTK; test: In Vitro PD Assay in Human Whole Blood (pBTK assay); assay type: cell-based; details: human heparinized whole blood, 37° C. for 30 min, total BTK capture and phosphotyrosine detection (ECL)
Description: In Vitro PD Assay in Human Whole Blood
Human heparinized venous blood was purchased from Bioreclamation, Inc. or SeraCare Life Sciences and shipped overnight. Whole blood was aliquoted into 96-well plate and “spiked” with serial dilutions of test compound in DMSO or with DMSO without drug. The final concentration of DMSO in all wells was 0.1%. The plate was incubated at 37° C. for 30 min. Lysis buffer containing protease and phosphatase inhibitors was added to the drug-containing samples and one of the DMSO-only samples (+PPi, high control), while lysis buffer containing protease inhibitors was added to the other DMSO-only samples (−PPi, low control). All of the lysed whole blood samples were subjected to the total BTK capture and phosphotyrosine detection method described in US20160311802, incorporated herein by reference.

T1 sequence (Q06187 whole entry): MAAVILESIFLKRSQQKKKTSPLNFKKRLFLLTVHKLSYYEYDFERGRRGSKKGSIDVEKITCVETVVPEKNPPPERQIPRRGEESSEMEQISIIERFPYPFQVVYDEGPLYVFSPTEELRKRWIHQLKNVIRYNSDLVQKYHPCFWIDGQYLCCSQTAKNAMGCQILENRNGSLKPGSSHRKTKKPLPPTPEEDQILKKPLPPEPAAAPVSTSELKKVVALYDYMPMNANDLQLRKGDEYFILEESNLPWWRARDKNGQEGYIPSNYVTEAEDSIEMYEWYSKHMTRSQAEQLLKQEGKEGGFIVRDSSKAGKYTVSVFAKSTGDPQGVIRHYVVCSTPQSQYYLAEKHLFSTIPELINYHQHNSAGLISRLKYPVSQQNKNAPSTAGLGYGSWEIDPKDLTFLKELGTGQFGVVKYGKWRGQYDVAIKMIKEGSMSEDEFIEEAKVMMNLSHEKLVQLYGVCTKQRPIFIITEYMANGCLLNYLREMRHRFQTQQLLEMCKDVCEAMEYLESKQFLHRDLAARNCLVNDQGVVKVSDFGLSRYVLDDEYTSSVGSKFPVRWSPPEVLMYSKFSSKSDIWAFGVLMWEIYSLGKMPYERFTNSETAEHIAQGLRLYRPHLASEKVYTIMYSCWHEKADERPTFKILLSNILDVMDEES

Compound	IC50 [1]	IC50 [2]
Cc1c([C@@H](C)NC(=O)c2nc(C(C)(C)C)no2)ccc(-c2ncnc(Nc3cnn(C)c3)n2)c1F [Compound 74, (R)-3-(tert-butyl)-N-(1-(3-fluoro-2-methyl-4-(4-((1-methyl-1H-pyrazol-4-yl)amino)-1,3,5-triazin-2-yl)phenyl)ethyl)-1,2,4-oxadiazole-5-carboxamide]	< 1 nM	< 100 nM
Cc1c([C@@H](C)NC(=O)c2noc(C(C)(C)C)n2)ccc(-c2ncnc(Nc3ccn(C)n3)n2)c1F [Compound 71, (R)-5-(tert-butyl)-N-(1-(3-fluoro-2-methyl-4-(4-((1-methyl-1H-pyrazol-3-yl)amino)-1,3,5-triazin-2-yl)phenyl)ethyl)-1,2,4-oxadiazole-3-carboxamide]	< 1 nM	100 to 500 nM
Cc1c([C@@H](C)NC(=O)c2noc(C(C)(C)C)n2)ccc(-c2ncnc(Nc3cnn(C)c3)n2)c1F [Compound 73, (R)-5-(tert-butyl)-N-(1-(3-fluoro-2-methyl-4-(4-((1-methyl-1H-pyrazol-4-yl)amino)-1,3,5-triazin-2-yl)phenyl)ethyl)-1,2,4-oxadiazole-3-carboxamide]	< 1 nM	< 100 nM
Cc1cc(-c2ncnc(Nc3cnn(C)c3)n2)c(F)cc1CNC(=O)c1cc(C(C)(C)C)no1 [Compound 63, 3-(tert-butyl)-N-(5-fluoro-2-methyl-4-(4-((1-methyl-1H-pyrazol-4-yl)amino)-1,3,5-triazin-2-yl)benzyl)isoxazole-5-carboxamide]	< 1 nM	500 to 10000 nM
Cn1cc(Nc2ncnc(-c3ccc(CNC(=O)c4nc(C(C)(C)C)no4)c(C(F)(F)F)c3)n2)cn1 [Compound 18, 3-(tert-butyl)-N-(4-(4-((1-methyl-1H-pyrazol-4-yl)amino)-1,3,5-triazin-2-yl)-2-(trifluoromethyl)benzyl)-1,2,4-oxadiazole-5-carboxamide]	< 1 nM	
Cc1cc(-c2ncnc(Nc3cnn(C)c3)n2)c(F)cc1CNC(=O)c1noc(C2(C)CC2)n1 [Compound 59, N-(5-fluoro-2-methyl-4-(4-((1-methyl-1H-pyrazol-4-yl)amino)-1,3,5-triazin-2-yl)benzyl)-5-(1-methylcyclopropyl)-1,2,4-oxadiazole-3-carboxamide]	< 1 nM	100 to 500 nM
Cc1c(CNC(=O)c2noc(C(C)(C)C)n2)ccc(-c2ncnc(Nc3cnn(C)c3)n2)c1F [Compound 13, 5-(tert-butyl)-N-(3-fluoro-2-methyl-4-(4-((1-methyl-1H-pyrazol-4-yl)amino)-1,3,5-triazin-2-yl)benzyl)-1,2,4-oxadiazole-3-carboxamide]	< 1 nM	< 100 nM
Cn1cc(Nc2ncnc(-c3cc4c(cc3F)[C@H](NC(=O)c3noc(C(C)(C)C)n3)CCCC4)n2)cn1 [Compound 86, (R)-5-(tert-butyl)-N-(3-fluoro-2-(4-((1-methyl-1H-pyrazol-4-yl)amino)-1,3,5-triazin-2-yl)-6,7,8,9-tetrahydro-5H-benzo[7]annulen-5-yl)-1,2,4-oxadiazole-3-carboxamide]	< 1 nM	< 100 nM
Cn1ccc(Nc2ncnc(-c3ccc4c(c3)CCCC[C@H]4NC(=O)c3noc(C(C)(C)C)n3)n2)n1 [Compound 23, 5-tert-butyl-N-[(5R)-2-[4-[(1-methylpyrazol-3-yl)amino]-1,3,5-triazin-2-yl]-6,7,8,9-tetrahydro-5H-benzo[7]annulen-5-yl]-1,2,4-oxadiazole-3-carboxamide]	< 1 nM	100 to 500 nM
Cc1cc(-c2ncnc(Nc3cnn(C)c3)n2)c(F)cc1CNC(=O)c1nnn(C(C)(C)C)n1 [Compound 58, 2-(tert-butyl)-N-(5-fluoro-2-methyl-4-(4-((1-methyl-1H-pyrazol-4-yl)amino)-1,3,5-triazin-2-yl)benzyl)-2H-tetrazole-5-carboxamide]	< 1 nM	100 to 500 nM
Cc1cc(-c2ncnc(Nc3cnn(C)c3)n2)ccc1CNC(=O)c1noc(C2[C@@H](C)[C@H]2C)n1 (stereo partly drawn) [Compound 41, 5-(2,3-cis-dimethylcyclopropyl)-N-(2-methyl-4-(4-((1-methyl-1H-pyrazol-4-yl)amino)-1,3,5-triazin-2-yl)benzyl)-1,2,4-oxadiazole-3-carboxamide]		500 to 10000 nM
Cc1cc(-c2ncnc(Nc3ccn(C)n3)n2)ccc1CNC(=O)c1nc(C(C)(C)C)no1 [Compound 2, 3-(tert-butyl)-N-(2-methyl-4-(4-((1-methyl-1H-pyrazol-3-yl)amino)-1,3,5-triazin-2-yl)benzyl)-1,2,4-oxadiazole-5-carboxamide]	< 1 nM	500 to 10000 nM
Cn1cc(Nc2ncnc(-c3ccc4c(c3F)CCCC[C@H]4NC(=O)c3noc(C(C)(C)C)n3)n2)cn1 [Compound 88, (R)-5-(tert-butyl)-N-(1-fluoro-2-(4-((1-methyl-1H-pyrazol-4-yl)amino)-1,3,5-triazin-2-yl)-6,7,8,9-tetrahydro-5H-benzo[7]annulen-5-yl)-1,2,4-oxadiazole-3-carboxamide]	< 1 nM	< 100 nM
Cc1cc(-c2ncnc(Nc3cnn(C)c3)n2)ccc1CNC(=O)c1cc(C(C)(C)C)on1 [Compound 38]		100 to 500 nM
Cc1c(CNC(=O)c2nc(C(C)(C)C)no2)ccc(-c2ncnc(Nc3ccn(C)n3)n2)c1F [Compound 10, 3-(tert-butyl)-N-(3-fluoro-2-methyl-4-(4-((1-methyl-1H-pyrazol-3-yl)amino)-1,3,5-triazin-2-yl)benzyl)-1,2,4-oxadiazole-5-carboxamide]	< 1 nM	
Cn1ccc(Nc2ncnc(-c3ccc(CNC(=O)c4noc(C(C)(C)C)n4)c(CC(F)F)c3)n2)n1 [Compound 67, 5-(tert-butyl)-N-(2-(2,2-difluoroethyl)-4-(4-((1-methyl-1H-pyrazol-3-yl)amino)-1,3,5-triazin-2-yl)benzyl)-1,2,4-oxadiazole-3-carboxamide]	1 to 10 nM	
C[C@@H](NC(=O)c1nc(C(C)(C)C)no1)c1ccc(-c2ncnc(Nc3ccn(C)n3)n2)c(F)c1C(F)F [Compound 83, (R)-3-(tert-butyl)-N-(1-(2-(difluoromethyl)-3-fluoro-4-(4-((1-methyl-1H-pyrazol-3-yl)amino)-1,3,5-triazin-2-yl)phenyl)ethyl)-1,2,4-oxadiazole-5-carboxamide]	1 to 10 nM	
Cn1ccc(Nc2ncnc(-c3ccc(CNC(=O)c4noc(C(C)(C)C)n4)c(C(F)(F)F)c3F)n2)n1 [Compound 19, 5-(tert-butyl)-N-(3-fluoro-4-(4-((1-methyl-1H-pyrazol-3-yl)amino)-1,3,5-triazin-2-yl)-2-(trifluoromethyl)benzyl)-1,2,4-oxadiazole-3-carboxamide]	1 to 10 nM	
Cn1ccc(Nc2ncnc(-c3ccc(CNC(=O)c4noc(C(C)(C)C)n4)c(C(F)(F)F)c3)n2)n1 [Compound 7, 5-(tert-butyl)-N-(4-(4-((1-methyl-1H-pyrazol-3-yl)amino)-1,3,5-triazin-2-yl)-2-(trifluoromethyl)benzyl)-1,2,4-oxadiazole-3-carboxamide]	1 to 10 nM	
Cn1ccc(Nc2ncnc(-c3ccc4c(c3)CN(CC(F)(F)F)CC[C@H]4NC(=O)c3noc(C(C)(C)C)n3)n2)n1 [Compound 25, 5-tert-butyl-N-[(5R)-8-[4-[(1-methylpyrazol-3-yl)amino]-1,3,5-triazin-2-yl]-2-(2,2,2-trifluoroethyl)-1,3,4,5-tetrahydro-2-benzazepin-5-yl]-1,2,4-oxadiazole-3-carboxamide]		< 100 nM
Cn1cc(Nc2ncnc(-c3ccc4c(c3)CN(C3COC3)CC[C@H]4NC(=O)c3cn(C(C)(C)C)nn3)n2)cn1 [Compound 24, 1-tert-butyl-N-[(5R)-8-[4-[(1-methylpyrazol-4-yl)amino]-1,3,5-triazin-2-yl]-2-(oxetan-3-yl)-1,3,4,5-tetrahydro-2-benzazepin-5-yl]triazole-4-carboxamide]		< 100 nM
Cn1ccc(Nc2ncnc(-c3ccc(CNC(=O)c4nc(C(C)(C)C)no4)c(C(F)(F)F)c3)n2)n1 [Compound 8, 3-(tert-butyl)-N-(4-(4-((1-methyl-1H-pyrazol-3-yl)amino)-1,3,5-triazin-2-yl)-2-(trifluoromethyl)benzyl)-1,2,4-oxadiazole-5-carboxamide]	1 to 10 nM	
C[C@@H](NC(=O)c1nc(C(C)(C)C)no1)c1ccc(-c2ncnc(Nc3cnn(C)c3)n2)c(F)c1Cl [Compound 70, (R)-3-(tert-butyl)-N-(1-(2-chloro-3-fluoro-4-(4-((1-methyl-1H-pyrazol-4-yl)amino)-1,3,5-triazin-2-yl)phenyl)ethyl)-1,2,4-oxadiazole-5-carboxamide]		< 100 nM
Cc1cc(-c2ncnc(Nc3cnn(C)c3)n2)ccc1CNC(=O)c1nnc(C(C)(C)C)o1 [Compound 110, 5-(tert-butyl)-N-(2-methyl-4-(4-((1-methyl-1H-pyrazol-4-yl)amino)-1,3,5-triazin-2-yl)benzyl)-1,3,4-oxadiazole-2-carboxamide]	1 to 10 nM	
